Laboratory results: US11702646B2, “Methods for modulating RNA splicing” (PTC THERAPEUTICS, INC., priority 2016, dated 2023)

Legend:
[1] = tested on: RNA transcripts in HDF cell line; test: ΔPSI (iExon production / exon inclusion), FET and Fold Decrease of RNA transcripts in HDF cell line treated at 3 μM; assay type: cell-based; conditions: for FD HDF: Fold Decrease
Experimental: (§1) Results: The statistically significant value for the likelihood of iExon production (ΔPSI) according to the Fisher's Exact Test (FET) for PNN and HDF cell lines treated with Compound 774 at 3 μM and Fold Decrease (FD) for certain genes tested, where NR represents “Not Reported,” is shown in Table 10.
(§2) The ΔPSI for inclusion of an iExon and resulting modulated expression of RNA transcripts identified is represented by stars, where one star (*) represents ≤25% change in expression, where two stars (**) represent change in expression in a range from <26% to ≤50% change, where three stars (***) represent change in expression in a range from <51% to ≤75% change, and, where four stars (****) represent change in expression in a range from <75% to ≤100% change.
(§3) Results: The statistically significant value for the likelihood of exon inclusion (ΔPSI) according to the Fisher's Exact Test (FET) for PNN and HDF cell lines treated with Compound 774 at 3 μM and Fold Decrease (FD) for certain genes tested, where NR represents “Not Reported,” is shown in Table 10a.
as §2, with “exon” for “iExon”

[2] = tested on: RNA transcripts in PNN cell line; test: ΔPSI (iExon production / exon inclusion), FET and Fold Decrease of RNA transcripts in PNN cell line treated at 3 μM; assay type: cell-based; conditions: for FD PNN: Fold Decrease
Experimental: as §1, §2, §3
as §2, with “exon” for “iExon”

[3] = gene FAM198B, exon e3, HDF cells, 3 μM
[4] = gene PRUNE2, exon e18, HDF cells, 3 μM
[5] = gene FAM198B, exon e3, PNN cells, 3 μM
[6] = gene PRUNE2, exon e18, PNN cells, 3 μM

CCc1nc(C)cn2nc(-c3cc(=O)n4cc(C5CCN(C)CC5)cc(C)c4n3)cc12 [Compound 774]
FD HDF [1, 3]: −0.35
FD HDF [1, 4]: −1.74
ΔPSI (HDF) ([1]; gene APLP2, exon e7, HDF cells, 3 μM): ** (two stars (**) represent change in expression in a range from <26% to ≤50% change)
ΔPSI (HDF) ([1]; gene AXIN1, exon e9, HDF cells, 3 μM): * (one star (*) represents ≤25% change in expression)
ΔPSI (HDF) ([1]; gene CECR7, exon e5, HDF cells, 3 μM): * (one star (*) represents ≤25% change in expression)
ΔPSI (HDF) ([1]; gene DAGLB, exon e4, HDF cells, 3 μM): * (one star (*) represents ≤25% change in expression)
ΔPSI (HDF) ([1]; gene DLGAP4, exon e8, HDF cells, 3 μM): * (one star (*) represents ≤25% change in expression)
ΔPSI (HDF) ([1]; gene ERCC1, exon e8, HDF cells, 3 μM): * (one star (*) represents ≤25% change in expression)
ΔPSI (HDF) ([1]; gene ERGIC3, exon e8, HDF cells, 3 μM): * (one star (*) represents ≤25% change in expression)
ΔPSI (HDF) [1, 3]: * (one star (*) represents ≤25% change in expression)
ΔPSI (HDF) ([1]; gene GGCT, exon e2, HDF cells, 3 μM): ** (two stars (**) represent change in expression in a range from <26% to ≤50% change)
ΔPSI (HDF) ([1]; gene HAT1, exon e3, HDF cells, 3 μM): * (one star (*) represents ≤25% change in expression)
ΔPSI (HDF) ([1]; gene HPS1, exon e5, HDF cells, 3 μM): * (one star (*) represents ≤25% change in expression)
ΔPSI (HDF) ([1]; gene INPP5K, exon e2, HDF cells, 3 μM): * (one star (*) represents ≤25% change in expression)
ΔPSI (HDF) ([1]; gene MADD, exon e21, HDF cells, 3 μM): * (one star (*) represents ≤25% change in expression)
ΔPSI (HDF) ([1]; gene PPHLN1, exon e3, HDF cells, 3 μM): ** (two stars (**) represent change in expression in a range from <26% to ≤50% change)
ΔPSI (HDF) [1, 4]: ** (two stars (**) represent change in expression in a range from <26% to ≤50% change)
ΔPSI (HDF) ([1]; gene RAP1A, exon e2, HDF cells, 3 μM): * (one star (*) represents ≤25% change in expression)
ΔPSI (HDF) ([1]; gene RNFT1, exon e3, HDF cells, 3 μM): * (one star (*) represents ≤25% change in expression)
ΔPSI (HDF) ([1]; gene RPS6KB2, exon e2, HDF cells, 3 μM): * (one star (*) represents ≤25% change in expression)
ΔPSI (HDF) ([1]; gene SH3YL1, exon e9, HDF cells, 3 μM): * (one star (*) represents ≤25% change in expression)
ΔPSI (HDF) ([1]; gene SKA2, exon e3, HDF cells, 3 μM): * (one star (*) represents ≤25% change in expression)
ΔPSI (HDF) ([1]; gene SPATA18, exon e4, HDF cells, 3 μM): * (one star (*) represents ≤25% change in expression)
ΔPSI (HDF) ([1]; gene STRN3, exon e8, HDF cells, 3 μM): *** (three stars (***) represent change in expression in a range from <51% to ≤75% change)
ΔPSI (HDF) ([1]; gene TMEM189-UBE2V1, exon e6, HDF cells, 3 μM): * (one star (*) represents ≤25% change in expression)
ΔPSI (HDF) ([1]; gene TRIM65, exon e5, HDF cells, 3 μM): ** (two stars (**) represent change in expression in a range from <26% to ≤50% change)
ΔPSI (HDF) ([1]; gene TUBE1, exon e4, HDF cells, 3 μM): * (one star (*) represents ≤25% change in expression)
ΔPSI (HDF) ([1]; gene UBE2V1, exon e3, HDF cells, 3 μM): * (one star (*) represents ≤25% change in expression)
ΔPSI (HDF) ([1]; gene VPS29, exon e2, HDF cells, 3 μM): ** (two stars (**) represent change in expression in a range from <26% to ≤50% change)
ΔPSI (HDF) ([1]; gene ZFP82, iExon inclusion position i4, HDF cell line, Compound 774 at 3 μM): ** (two stars (**) represent change in expression in a range from <26% to ≤50% change)
ΔPSI (HDF) ([1]; gene ZNF37BP, iExon inclusion position i4, HDF cell line, Compound 774 at 3 μM): *** (three stars (***) represent change in expression in a range from <51% to ≤75% change)
ΔPSI (HDF) ([1]; gene ZNF138, iExon inclusion position i3, HDF cell line, Compound 774 at 3 μM): * (one star (*) represents ≤25% change in expression)
ΔPSI (HDF) ([1]; gene ZNF232, iExon inclusion position i4, HDF cell line, Compound 774 at 3 μM): * (one star (*) represents ≤25% change in expression)
ΔPSI (HDF) ([1]; gene ZNF680, exon e3, HDF cells, 3 μM): * (one star (*) represents ≤25% change in expression)
FD PNN [2, 5]: −1.81
FD PNN [2, 6]: −0.52
ΔPSI (PNN) ([2]; gene APLP2, exon e7, PNN cells, 3 μM): ** (two stars (**) represent change in expression in a range from <26% to ≤50% change)
ΔPSI (PNN) ([2]; gene AXIN1, exon e9, PNN cells, 3 μM): ** (two stars (**) represent change in expression in a range from <26% to ≤50% change)
ΔPSI (PNN) ([2]; gene CECR7, exon e5, PNN cells, 3 μM): * (one star (*) represents ≤25% change in expression)
ΔPSI (PNN) ([2]; gene DAGLB, exon e4, PNN cells, 3 μM): * (one star (*) represents ≤25% change in expression)
ΔPSI (PNN) ([2]; gene DLGAP4, exon e8, PNN cells, 3 μM): * (one star (*) represents ≤25% change in expression)
ΔPSI (PNN) ([2]; gene ERCC1, exon e8, PNN cells, 3 μM): * (one star (*) represents ≤25% change in expression)
ΔPSI (PNN) ([2]; gene ERGIC3, exon e8, PNN cells, 3 μM): * (one star (*) represents ≤25% change in expression)
ΔPSI (PNN) [2, 5]: * (one star (*) represents ≤25% change in expression)
ΔPSI (PNN) ([2]; gene GGCT, exon e2, PNN cells, 3 μM): ** (two stars (**) represent change in expression in a range from <26% to ≤50% change)
ΔPSI (PNN) ([2]; gene HAT1, exon e3, PNN cells, 3 μM): * (one star (*) represents ≤25% change in expression)
ΔPSI (PNN) ([2]; gene HPS1, exon e5, PNN cells, 3 μM): * (one star (*) represents ≤25% change in expression)
ΔPSI (PNN) ([2]; gene INPP5K, exon e2, PNN cells, 3 μM): * (one star (*) represents ≤25% change in expression)
ΔPSI (PNN) ([2]; gene MADD, exon e21, PNN cells, 3 μM): * (one star (*) represents ≤25% change in expression)
ΔPSI (PNN) ([2]; gene PPHLN1, exon e3, PNN cells, 3 μM): *** (three stars (***) represent change in expression in a range from <51% to ≤75% change)
ΔPSI (PNN) [2, 6]: * (one star (*) represents ≤25% change in expression)
ΔPSI (PNN) ([2]; gene RAP1A, exon e2, PNN cells, 3 μM): * (one star (*) represents ≤25% change in expression)
ΔPSI (PNN) ([2]; gene RNFT1, exon e3, PNN cells, 3 μM): * (one star (*) represents ≤25% change in expression)
ΔPSI (PNN) ([2]; gene RPS6KB2, exon e2, PNN cells, 3 μM): * (one star (*) represents ≤25% change in expression)
ΔPSI (PNN) ([2]; gene SH3YL1, exon e9, PNN cells, 3 μM): * (one star (*) represents ≤25% change in expression)
ΔPSI (PNN) ([2]; gene SKA2, exon e3, PNN cells, 3 μM): * (one star (*) represents ≤25% change in expression)
ΔPSI (PNN) ([2]; gene SPATA18, exon e4, PNN cells, 3 μM): ** (two stars (**) represent change in expression in a range from <26% to ≤50% change)
ΔPSI (PNN) ([2]; gene STRN3, exon e8, PNN cells, 3 μM): **** (four stars (****) represent change in expression in a range from <75% to ≤100% change)
ΔPSI (PNN) ([2]; gene TMEM189-UBE2V1, exon e6, PNN cells, 3 μM): * (one star (*) represents ≤25% change in expression)
ΔPSI (PNN) ([2]; gene TRIM65, exon e5, PNN cells, 3 μM): *** (three stars (***) represent change in expression in a range from <51% to ≤75% change)
ΔPSI (PNN) ([2]; gene TUBE1, exon e4, PNN cells, 3 μM): * (one star (*) represents ≤25% change in expression)
ΔPSI (PNN) ([2]; gene UBE2V1, exon e3, PNN cells, 3 μM): * (one star (*) represents ≤25% change in expression)
ΔPSI (PNN) ([2]; gene VPS29, exon e2, PNN cells, 3 μM): ** (two stars (**) represent change in expression in a range from <26% to ≤50% change)
ΔPSI (PNN) ([2]; gene ZFP82, iExon inclusion position i4, PNN cell line, Compound 774 at 3 μM): ** (two stars (**) represent change in expression in a range from <26% to ≤50% change)
ΔPSI (PNN) ([2]; gene ZNF37BP, iExon inclusion position i4, PNN cell line, Compound 774 at 3 μM): **** (four stars (****) represent change in expression in a range from <75% to ≤100% change)
ΔPSI (PNN) ([2]; gene ZNF138, iExon inclusion position i3, PNN cell line, Compound 774 at 3 μM): *** (three stars (***) represent change in expression in a range from <51% to ≤75% change)
ΔPSI (PNN) ([2]; gene ZNF232, iExon inclusion position i4, PNN cell line, Compound 774 at 3 μM): * (one star (*) represents ≤25% change in expression)
ΔPSI (PNN) ([2]; gene ZNF680, exon e3, PNN cells, 3 μM): * (one star (*) represents ≤25% change in expression)
